Experimental data reported in the NIST ThermoML archive (doi:10.1016/j.jct.2012.03.005).
Numbers after ± are expanded uncertainties.

Experiment: activity coefficient (dimensionless); of the first substance listed, at infinite dilution; xn = mol fraction of the nth substance listed
Settings: 101 kPa, Liquid, Chromatography, x1 = 0

Row | Structure (SMILES) | activity coefficient (308.15 K) | activity coefficient (318.15 K) | activity coefficient (328.15 K) | activity coefficient (338.15 K) | activity coefficient (348.15 K) | activity coefficient (358.15 K)
1 | Cc1ccccc1C [1,2-dimethylbenzene] + CCn1cc[n+](C)c1.CS(=O)(=O)[O-] | 15 ± 1 | 14.6 ± 1 | 14.3 ± 1 | 14 ± 1 | 13.8 ± 0.9 | 13.5 ± 0.9
2 | Cc1cccc(C)c1 [1,3-dimethylbenzene] + CCn1cc[n+](C)c1.CS(=O)(=O)[O-] | 19.7 ± 1.3 | 19.1 ± 1.3 | 18.6 ± 1.3 | 18.1 ± 1.2 | 17.6 ± 1.2 | 17.1 ± 1.2
3 | Cc1ccc(C)cc1 [1,4-dimethylbenzene] + CCn1cc[n+](C)c1.CS(=O)(=O)[O-] | 18.6 ± 1.3 | 18.7 ± 1.3 | 18.7 ± 1.3 | 18.8 ± 1.3 | 18.8 ± 1.3 | 18.9 ± 1.3
4 | C1COCCO1 [1,4-dioxane] + CCn1cc[n+](C)c1.CS(=O)(=O)[O-] | 2.6 ± 0.18 | 2.63 ± 0.18 | 2.67 ± 0.18 | 2.69 ± 0.18 | 2.72 ± 0.19 | 2.73 ± 0.19
5 | C=CCCCCCCCC [1-decene] + CCn1cc[n+](C)c1.CS(=O)(=O)[O-] | 654 ± 45 | 584 ± 40 | 528 ± 36 | 479 ± 33 | 434 ± 30 | 
6 | C=CCCCCC [1-heptene] + CCn1cc[n+](C)c1.CS(=O)(=O)[O-] | 148 ± 10 | 134 ± 9 | 122 ± 8 | 112 ± 8 | 102 ± 7 | 
7 | C#CCCCCC [1-heptyne] + CCn1cc[n+](C)c1.CS(=O)(=O)[O-] | 14.4 ± 1 | 14.6 ± 1 | 14.5 ± 1 | 14.6 ± 1 | 14.6 ± 1 | 
8 | C#CCCCC [1-hexyne] + CCn1cc[n+](C)c1.CS(=O)(=O)[O-] | 7.87 ± 0.54 | 8.07 ± 0.55 | 8.06 ± 0.55 | 8.29 ± 0.57 | 8.27 ± 0.56 | 
9 | CCC[N+](=O)[O-] [1-nitropropane] + CCn1cc[n+](C)c1.CS(=O)(=O)[O-] | 2.36 ± 0.16 | 2.37 ± 0.16 | 2.37 ± 0.16 | 2.38 ± 0.16 | 2.39 ± 0.16 | 2.39 ± 0.16
10 | C#CCCCCCC [1-octyne] + CCn1cc[n+](C)c1.CS(=O)(=O)[O-] | 26.2 ± 1.8 | 26.2 ± 1.8 | 25.6 ± 1.8 | 25.3 ± 1.7 | 25.1 ± 1.7 | 
11 | CCOC(C)(C)C [2-ethoxy-2-methylpropane] + CCn1cc[n+](C)c1.CS(=O)(=O)[O-] | 66.5 ± 4.6 | 60.8 ± 4.2 | 57.1 ± 3.9 | 53.5 ± 3.7 | 50 ± 3.4 | 
12 | CCC(C)(C)OC [2-methoxy-2-methylbutane] + CCn1cc[n+](C)c1.CS(=O)(=O)[O-] | 40.3 ± 2.8 | 37.8 ± 2.6 | 35.8 ± 2.5 | 34 ± 2.3 | 32.6 ± 2.2 | 
13 | COC(C)(C)C [2-methoxy-2-methylpropane] + CCn1cc[n+](C)c1.CS(=O)(=O)[O-] | 23.6 ± 1.6 | 22.5 ± 1.5 | 21.7 ± 1.5 | 20.7 ± 1.4 | 20 ± 1.4 | 
14 | C=C(C)c1ccccc1 [(1-methylethenyl)benzene] + CCn1cc[n+](C)c1.CS(=O)(=O)[O-] | 10.7 ± 0.7 | 10.9 ± 0.7 | 11.1 ± 0.8 | 11.2 ± 0.8 | 11.3 ± 0.8 | 11.5 ± 0.8
15 | CC(C)=O [acetone] + CCn1cc[n+](C)c1.CS(=O)(=O)[O-] | 308 ± 21 | 318 ± 22 | 328 ± 23 | 338 ± 23 | 348 ± 24 | 358 ± 25
16 | CC#N [acetonitrile] + CCn1cc[n+](C)c1.CS(=O)(=O)[O-] | 0.799 ± 0.052 | 0.818 ± 0.053 | 0.841 ± 0.054 | 0.86 ± 0.06 | 0.877 ± 0.056 | 0.892 ± 0.057
17 | c1ccccc1 [benzene] + CCn1cc[n+](C)c1.CS(=O)(=O)[O-] | 308 ± 21 | 318 ± 22 | 328 ± 23 | 338 ± 23 | 348 ± 24 | 358 ± 25
18 | C1CCCCCC1 [cycloheptane] + CCn1cc[n+](C)c1.CS(=O)(=O)[O-] | 113 ± 8 | 99.8 ± 6.9 | 90.7 ± 6.2 | 79.9 ± 5.5 | 72.6 ± 5 | 
19 | C1CCCCC1 [cyclohexane] + CCn1cc[n+](C)c1.CS(=O)(=O)[O-] | 83.6 ± 5.7 | 73.9 ± 5.1 | 67.6 ± 4.6 | 59.6 ± 4.1 | 53.7 ± 3.7 | 
20 | C1CCCCCCC1 [cyclooctane] + CCn1cc[n+](C)c1.CS(=O)(=O)[O-] | 163 ± 11 | 143 ± 10 | 128 ± 9 | 114 ± 8 | 101 ± 7 | 
21 | CCOCC [diethyl ether] + CCn1cc[n+](C)c1.CS(=O)(=O)[O-] | 19.2 ± 1.3 | 18.2 ± 1.2 | 17.5 ± 1.2 | 16.8 ± 1.1 | 16.1 ± 1.1 | 
22 | c1ccncc1 [pyridine] + CCn1cc[n+](C)c1.CS(=O)(=O)[O-] | 1.56 ± 0.1 | 1.57 ± 0.1 | 1.59 ± 0.11 | 1.6 ± 0.1 | 1.62 ± 0.11 | 1.64 ± 0.11

Continued, values first:

Row | activity coefficient (308.15 K) | activity coefficient (318.15 K) | activity coefficient (328.15 K) | activity coefficient (338.15 K) | activity coefficient (348.15 K) | activity coefficient (358.15 K) | Structure (SMILES)
23 | 46.2 ± 3.2 | 42.2 ± 2.9 | 39.5 ± 2.7 | 36.1 ± 2.5 | 33 ± 2.3 |  | C1CCCC1 [cyclopentane] + CCn1cc[n+](C)c1.CS(=O)(=O)[O-]
24 | 1320 ± 91 | 1180 ± 82 | 1040 ± 72 | 925 ± 64 | 835 ± 58 | 762 ± 53 | CCCCCCCCCC [decane] + CCn1cc[n+](C)c1.CS(=O)(=O)[O-]
25 | 79.6 ± 5.5 | 74.3 ± 5.1 | 68.7 ± 4.7 | 64.8 ± 4.4 | 60.6 ± 4.2 |  | CC(C)OC(C)C [diisopropyl ether] + CCn1cc[n+](C)c1.CS(=O)(=O)[O-]
26 | 80.3 ± 5.5 | 72.7 ± 5 | 67.5 ± 4.6 | 62.8 ± 4.3 | 58.1 ± 4 |  | CCCOCCC [dipropyl ether] + CCn1cc[n+](C)c1.CS(=O)(=O)[O-]
27 | 0.489 ± 0.037 | 0.483 ± 0.037 | 0.479 ± 0.037 | 0.474 ± 0.037 | 0.47 ± 0.04 | 0.467 ± 0.036 | CCO [ethanol] + CCn1cc[n+](C)c1.CS(=O)(=O)[O-]
28 | 18.1 ± 1.2 | 17.5 ± 1.2 | 17.1 ± 1.2 | 16.5 ± 1.1 | 16.1 ± 1.1 | 15.6 ± 1.1 | CCc1ccccc1 [ethylbenzene] + CCn1cc[n+](C)c1.CS(=O)(=O)[O-]
29 | 378 ± 26 | 328 ± 23 | 273 ± 19 | 244 ± 17 |  |  | CCCCCCC [heptane] + CCn1cc[n+](C)c1.CS(=O)(=O)[O-]
30 | 85.1 ± 5.8 | 77.1 ± 5.3 | 70.4 ± 4.8 | 63.9 ± 4.4 |  |  | C=CCCCC [hex-1-ene] + CCn1cc[n+](C)c1.CS(=O)(=O)[O-]
31 | 0.223 ± 0.029 | 0.225 ± 0.029 | 0.228 ± 0.029 | 0.229 ± 0.029 | 0.232 ± 0.029 | 0.234 ± 0.029 | CO [methanol] + CCn1cc[n+](C)c1.CS(=O)(=O)[O-]
32 | 911 ± 63 | 779 ± 54 | 690 ± 48 | 607 ± 42 | 547 ± 38 | 507 ± 35 | CCCCCCCCC [nonane] + CCn1cc[n+](C)c1.CS(=O)(=O)[O-]
33 | 258 ± 18 | 228 ± 16 | 206 ± 14 | 187 ± 13 | 170 ± 12 |  | C=CCCCCCC [oct-1-ene] + CCn1cc[n+](C)c1.CS(=O)(=O)[O-]
34 | 597 ± 41 | 505 ± 35 | 453 ± 31 | 388 ± 27 | 350 ± 24 |  | CCCCCCCC [octane] + CCn1cc[n+](C)c1.CS(=O)(=O)[O-]
35 | 7.83 ± 0.53 | 7.66 ± 0.52 | 7.52 ± 0.51 | 7.39 ± 0.5 | 7.26 ± 0.5 | 7.14 ± 0.49 | CCCC(C)=O [pentan-2-one] + CCn1cc[n+](C)c1.CS(=O)(=O)[O-]
36 | 8.08 ± 0.55 | 7.96 ± 0.54 | 7.86 ± 0.54 | 7.75 ± 0.53 | 7.63 ± 0.52 | 7.53 ± 0.51 | CCC(=O)CC [pentan-3-one] + CCn1cc[n+](C)c1.CS(=O)(=O)[O-]
37 | 0.761 ± 0.05 | 0.75 ± 0.05 | 0.736 ± 0.049 | 0.724 ± 0.048 | 0.716 ± 0.048 | 0.708 ± 0.047 | CCCO [propan-1-ol] + CCn1cc[n+](C)c1.CS(=O)(=O)[O-]
38 | 5.68 ± 0.39 | 5.71 ± 0.39 | 5.75 ± 0.39 | 5.79 ± 0.39 | 5.82 ± 0.4 | 5.85 ± 0.4 | C=Cc1ccccc1 [styrene] + CCn1cc[n+](C)c1.CS(=O)(=O)[O-]
